Measurements published in paper PMC4890005, “Newly identified motifs in Candida albicans Cdr1 protein nucleotide binding domains are pleiotropic drug resistance subfamily-specific and functionally asymmetric” (Scientific Reports, 2016).

What was measured:
Cdr1p (Cdr1p-GFP) [1] = target: T1, Cdr1p (Cdr1p-GFP) (Candida albicans, UniProt Q5ANA3, DEL905-905); experiment: cell-based
T1 construct: gene CDR1
Source text: (§1) R6G binding, from drug transport kinetics of overexpressing yeast (method not detailed) on Cdr1p (Cdr1p-GFP)

Cdr1p (Cdr1p-GFP) [2] = target: T2, Cdr1p (Cdr1p-GFP) (Candida albicans, UniProt Q5ANA3, DEL903-903); experiment: cell-based
T2 construct: gene CDR1
Source text: as §1

Cdr1p (Cdr1p-GFP) [3] = target: T3, Cdr1p (Cdr1p-GFP) (Candida albicans, UniProt Q5ANA3); experiment: R6G binding, from drug transport kinetics of overexpressing yeast (method not detailed); type: cell-based
T3 construct: gene CDR1; plasmid pPSCDR1-GFP integrated at PDR5 locus of S. cerevisiae AD1-8u-; plasma membrane fractions or cells

[4] = tested on: Nc1ncnc2c1ncn2[C@@H]1O[C@H](COP(=O)(O)OP(=O)(O)OP(=O)(O)O)[C@@H](O)[C@H]1O; experiment: cells, lysate or membranes; settings: 30 °C, Mg-ATP, GFP-tagged wild type
Source text: oligomycin-sensitive ATPase, Pi release, plasma membrane fraction; Lineweaver-Burk on Cdr1p (Cdr1p-GFP)

CCN=c1cc2oc3cc(NCC)c(C)cc3c(-c3ccccc3C(=O)OCC)c-2cc1C [Rhodamine 6G]
Kd (Cdr1p (Cdr1p-GFP) [1]): 25 ± 2 µM
Kd (Cdr1p (Cdr1p-GFP) [2]): 11.9 ± 1.9 µM
Kd (Cdr1p (Cdr1p-GFP) [3]): 9 ± 1.8 µM

Cdr1p (Cdr1p-GFP) (Candida albicans SC5314)
Km [4]: 2100 ± 500 µM
Vmax [4]: 0.105 µmol/min/mg
